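Cultured in 96-well plates, cells were exposed to test compound for 48 hours across five concentrations. At the TGI there is no net growth.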
System: KM20L2 colon
Assay: NCI anticancer screen, dose series, 48 h

Row | SMILES | TGI
1 | COC(=O)C12C3C4C5(C(=O)OC)C(C1C35C(=O)N(C(C)C)C(C)C)C42C(=O)N(C(C)C)C(C)C (stereo not drawn) | > 50 µM
2 | Cc1cc(C)n(CCNCCn2nc(C)cc2C)n1 | > 100 µM
3 | O=C1CSC(Cc2nc3ccccc3[nH]2)=N1 | 33.3 µM
4 | O=C(/C=C/c1ccccc1)/C=C/c1ccccc1 | 52.5 µM
5 | N#C/C(=C\c1ccc(O)c(O)c1)C(N)=O | > 100 µM
6 | N#CC(C(=O)/C(=N/Nc1nc(=S)[nH]n1N)C(C#N)c1ccccc1)c1ccccc1 (stereo not drawn) | > 100 µM
7 | N#CC(C#N)=c1[nH]c2cccc3c2-c2c(cccc2c3=C(C#N)C#N)[nH]1 | > 100 µM

System: LXFL 529 NSCLC
Assay: NCI anticancer screen, dose series, 48 h

Row | SMILES | TGI
8 | N#CC1(C2SCCS2=O)C2=C(C(=O)c3ccccc3C2=O)N2CCCC21 (stereo not drawn) | 8.06 µM
9 | CCOC(=O)c1[nH]c(COC(C)=O)c(CCCOC(C)=O)c1CCCOC(C)=O | > 100 µM
10 | O=C(Nc1ccc([N+](=O)[O-])cc1)C1C(=O)C(=O)N(c2ccc([N+](=O)[O-])cc2)C1=O (stereo not drawn) | > 100 µM
11 | O=C(CCC/C(CC(=O)c1ccc(Br)cc1)=N\O)Nc1ccccc1 | > 100 µM
12 | CCOC(=O)C1N(S(=O)(=O)c2ccc(C)cc2)CCC12C(c1ccc(OC)cc1)NC1CCCCC12 (stereo not drawn) | > 100 µM
13 | COc1ccccc1NC(=O)C1=C(C)NC(C)=C(C(=O)Nc2ccccc2OC)C1c1ccc([N+](=O)[O-])cc1 | > 100 µM
14 | COC(=O)/C=C/C1C(C(=O)OC)C2(C(=O)OC)CCC1(C(=O)OC)N2 (stereo not drawn) | > 100 µM
15 | COc1ccc(C(=O)C(CO)Oc2ccccc2OC)cc1OC (stereo not drawn) | > 100 µM
16 | N#CC(/C(=N/NC(=O)C(=O)NN)C(=O)NC12CC3CC(CC(C3)C1)C2)c1ccccc1 (stereo not drawn) | > 100 µM
17 | CC(C)(C)C(=O)/C=C/c1ccc(Oc2ccccc2)cc1 | 28.9 µM
18 | CCOC(=O)CCc1c(C)c2c(OC(C)=O)cc(OC(C)=O)cc2oc1=O | > 100 µM
19 | O=C(CN1CCCCC1)N1CCc2c([nH]c3ccccc23)C1c1cccnc1 (stereo not drawn) | > 100 µM
20 | COC(=O)C12C3C4C5(C(=O)OC)C(C1C35C(=O)N(C(C)C)C(C)C)C42C(=O)N(C(C)C)C(C)C (stereo not drawn) | > 50 µM
21 | Cc1cc(C)n(CCNCCn2nc(C)cc2C)n1 | > 100 µM
22 | O=C1CSC(Cc2nc3ccccc3[nH]2)=N1 | > 53.8 µM
23 | O=C(/C=C/c1ccccc1)/C=C/c1ccccc1 | 50.1 µM
24 | N#C/C(=C\c1ccc(O)c(O)c1)C(N)=O | > 100 µM
25 | N#CC(C(=O)/C(=N/Nc1nc(=S)[nH]n1N)C(C#N)c1ccccc1)c1ccccc1 (stereo not drawn) | > 100 µM
26 | N#CC(C#N)=c1[nH]c2cccc3c2-c2c(cccc2c3=C(C#N)C#N)[nH]1 | > 100 µM

System: PC-3 prostate
Assay: NCI anticancer screen, dose series, 48 h

Row | SMILES | TGI
27 | N#CC1(C2SCCS2=O)C2=C(C(=O)c3ccccc3C2=O)N2CCCC21 (stereo not drawn) | 14.7 µM
28 | N#CC(C(=O)/C(=N/Nc1nc(=S)[nH]n1N)C(C#N)c1ccccc1)c1ccccc1 (stereo not drawn) | > 100 µM

System: SN12C renal
Assay: NCI anticancer screen, dose series, 48 h

Row | SMILES | TGI
29 | N#CC1(C2SCCS2=O)C2=C(C(=O)c3ccccc3C2=O)N2CCCC21 (stereo not drawn) | 6.71 µM
30 | CCOC(=O)c1[nH]c(COC(C)=O)c(CCCOC(C)=O)c1CCCOC(C)=O | > 100 µM
31 | O=C(Nc1ccc([N+](=O)[O-])cc1)C1C(=O)C(=O)N(c2ccc([N+](=O)[O-])cc2)C1=O (stereo not drawn) | > 100 µM
32 | O=C(CCC/C(CC(=O)c1ccc(Br)cc1)=N\O)Nc1ccccc1 | > 100 µM
33 | CCOC(=O)C1N(S(=O)(=O)c2ccc(C)cc2)CCC12C(c1ccc(OC)cc1)NC1CCCCC12 (stereo not drawn) | > 100 µM
34 | COc1ccccc1NC(=O)C1=C(C)NC(C)=C(C(=O)Nc2ccccc2OC)C1c1ccc([N+](=O)[O-])cc1 | > 100 µM
35 | COC(=O)/C=C/C1C(C(=O)OC)C2(C(=O)OC)CCC1(C(=O)OC)N2 (stereo not drawn) | > 100 µM
36 | COc1ccc(C(=O)C(CO)Oc2ccccc2OC)cc1OC (stereo not drawn) | > 100 µM
37 | N#CC(/C(=N/NC(=O)C(=O)NN)C(=O)NC12CC3CC(CC(C3)C1)C2)c1ccccc1 (stereo not drawn) | > 100 µM
38 | CC(C)(C)C(=O)/C=C/c1ccc(Oc2ccccc2)cc1 | 46 µM
39 | CCOC(=O)CCc1c(C)c2c(OC(C)=O)cc(OC(C)=O)cc2oc1=O | 87 µM
40 | O=C(CN1CCCCC1)N1CCc2c([nH]c3ccccc23)C1c1cccnc1 (stereo not drawn) | > 100 µM
41 | COC(=O)C12C3C4C5(C(=O)OC)C(C1C35C(=O)N(C(C)C)C(C)C)C42C(=O)N(C(C)C)C(C)C (stereo not drawn) | > 50 µM
42 | Cc1cc(C)n(CCNCCn2nc(C)cc2C)n1 | > 100 µM
43 | O=C1CSC(Cc2nc3ccccc3[nH]2)=N1 | 44.8 µM
44 | O=C(/C=C/c1ccccc1)/C=C/c1ccccc1 | 42.1 µM
45 | N#C/C(=C\c1ccc(O)c(O)c1)C(N)=O | > 100 µM
46 | N#CC(C(=O)/C(=N/Nc1nc(=S)[nH]n1N)C(C#N)c1ccccc1)c1ccccc1 (stereo not drawn) | > 100 µM
47 | N#CC(C#N)=c1[nH]c2cccc3c2-c2c(cccc2c3=C(C#N)C#N)[nH]1 | > 100 µM

System: SNB-75 CNS
Assay: NCI anticancer screen, dose series, 48 h

Row | SMILES | TGI
48 | N#CC1(C2SCCS2=O)C2=C(C(=O)c3ccccc3C2=O)N2CCCC21 (stereo not drawn) | 8.04 µM
49 | O=C(Nc1ccc([N+](=O)[O-])cc1)C1C(=O)C(=O)N(c2ccc([N+](=O)[O-])cc2)C1=O (stereo not drawn) | > 100 µM
50 | O=C(CCC/C(CC(=O)c1ccc(Br)cc1)=N\O)Nc1ccccc1 | > 100 µM
51 | CCOC(=O)C1N(S(=O)(=O)c2ccc(C)cc2)CCC12C(c1ccc(OC)cc1)NC1CCCCC12 (stereo not drawn) | 77.8 µM
52 | COc1ccccc1NC(=O)C1=C(C)NC(C)=C(C(=O)Nc2ccccc2OC)C1c1ccc([N+](=O)[O-])cc1 | > 100 µM
53 | COC(=O)/C=C/C1C(C(=O)OC)C2(C(=O)OC)CCC1(C(=O)OC)N2 (stereo not drawn) | > 100 µM
54 | COc1ccc(C(=O)C(CO)Oc2ccccc2OC)cc1OC (stereo not drawn) | > 100 µM
55 | N#CC(/C(=N/NC(=O)C(=O)NN)C(=O)NC12CC3CC(CC(C3)C1)C2)c1ccccc1 (stereo not drawn) | > 100 µM
56 | CC(C)(C)C(=O)/C=C/c1ccc(Oc2ccccc2)cc1 | 74.5 µM
57 | CCOC(=O)CCc1c(C)c2c(OC(C)=O)cc(OC(C)=O)cc2oc1=O | > 100 µM
58 | O=C(CN1CCCCC1)N1CCc2c([nH]c3ccccc23)C1c1cccnc1 (stereo not drawn) | > 100 µM
59 | COC(=O)C12C3C4C5(C(=O)OC)C(C1C35C(=O)N(C(C)C)C(C)C)C42C(=O)N(C(C)C)C(C)C (stereo not drawn) | > 50 µM
60 | Cc1cc(C)n(CCNCCn2nc(C)cc2C)n1 | > 100 µM
61 | O=C1CSC(Cc2nc3ccccc3[nH]2)=N1 | 27.4 µM
62 | O=C(/C=C/c1ccccc1)/C=C/c1ccccc1 | > 100 µM
63 | N#C/C(=C\c1ccc(O)c(O)c1)C(N)=O | > 100 µM
64 | N#CC(C(=O)/C(=N/Nc1nc(=S)[nH]n1N)C(C#N)c1ccccc1)c1ccccc1 (stereo not drawn) | > 100 µM
65 | N#CC(C#N)=c1[nH]c2cccc3c2-c2c(cccc2c3=C(C#N)C#N)[nH]1 | > 100 µM

System: SNB-78 CNS
Assay: NCI anticancer screen, dose series, 48 h

Row | SMILES | TGI
66 | N#CC1(C2SCCS2=O)C2=C(C(=O)c3ccccc3C2=O)N2CCCC21 (stereo not drawn) | 6.89 µM
67 | CCOC(=O)c1[nH]c(COC(C)=O)c(CCCOC(C)=O)c1CCCOC(C)=O | > 100 µM
68 | O=C(Nc1ccc([N+](=O)[O-])cc1)C1C(=O)C(=O)N(c2ccc([N+](=O)[O-])cc2)C1=O (stereo not drawn) | > 100 µM
69 | O=C(CCC/C(CC(=O)c1ccc(Br)cc1)=N\O)Nc1ccccc1 | > 100 µM
70 | CCOC(=O)C1N(S(=O)(=O)c2ccc(C)cc2)CCC12C(c1ccc(OC)cc1)NC1CCCCC12 (stereo not drawn) | > 100 µM
71 | COc1ccccc1NC(=O)C1=C(C)NC(C)=C(C(=O)Nc2ccccc2OC)C1c1ccc([N+](=O)[O-])cc1 | > 100 µM
72 | COC(=O)/C=C/C1C(C(=O)OC)C2(C(=O)OC)CCC1(C(=O)OC)N2 (stereo not drawn) | > 100 µM
73 | COc1ccc(C(=O)C(CO)Oc2ccccc2OC)cc1OC (stereo not drawn) | > 100 µM
74 | N#CC(/C(=N/NC(=O)C(=O)NN)C(=O)NC12CC3CC(CC(C3)C1)C2)c1ccccc1 (stereo not drawn) | > 100 µM
75 | CC(C)(C)C(=O)/C=C/c1ccc(Oc2ccccc2)cc1 | 75.7 µM
76 | CCOC(=O)CCc1c(C)c2c(OC(C)=O)cc(OC(C)=O)cc2oc1=O | > 100 µM
77 | O=C(CN1CCCCC1)N1CCc2c([nH]c3ccccc23)C1c1cccnc1 (stereo not drawn) | > 100 µM
78 | COC(=O)C12C3C4C5(C(=O)OC)C(C1C35C(=O)N(C(C)C)C(C)C)C42C(=O)N(C(C)C)C(C)C (stereo not drawn) | > 50 µM
79 | Cc1cc(C)n(CCNCCn2nc(C)cc2C)n1 | > 100 µM
80 | O=C1CSC(Cc2nc3ccccc3[nH]2)=N1 | > 100 µM
81 | O=C(/C=C/c1ccccc1)/C=C/c1ccccc1 | > 100 µM
82 | N#C/C(=C\c1ccc(O)c(O)c1)C(N)=O | > 100 µM
83 | N#CC(C(=O)/C(=N/Nc1nc(=S)[nH]n1N)C(C#N)c1ccccc1)c1ccccc1 (stereo not drawn) | > 100 µM
84 | N#CC(C#N)=c1[nH]c2cccc3c2-c2c(cccc2c3=C(C#N)C#N)[nH]1 | > 100 µM

System: SW-620 colon
Assay: NCI anticancer screen, dose series, 48 h

Row | SMILES | TGI
85 | N#CC1(C2SCCS2=O)C2=C(C(=O)c3ccccc3C2=O)N2CCCC21 (stereo not drawn) | 6.41 µM
86 | CCOC(=O)c1[nH]c(COC(C)=O)c(CCCOC(C)=O)c1CCCOC(C)=O | > 100 µM
87 | O=C(Nc1ccc([N+](=O)[O-])cc1)C1C(=O)C(=O)N(c2ccc([N+](=O)[O-])cc2)C1=O (stereo not drawn) | 33.9 µM
88 | O=C(CCC/C(CC(=O)c1ccc(Br)cc1)=N\O)Nc1ccccc1 | > 100 µM
89 | CCOC(=O)C1N(S(=O)(=O)c2ccc(C)cc2)CCC12C(c1ccc(OC)cc1)NC1CCCCC12 (stereo not drawn) | > 100 µM
90 | COc1ccccc1NC(=O)C1=C(C)NC(C)=C(C(=O)Nc2ccccc2OC)C1c1ccc([N+](=O)[O-])cc1 | > 100 µM
91 | COC(=O)/C=C/C1C(C(=O)OC)C2(C(=O)OC)CCC1(C(=O)OC)N2 (stereo not drawn) | > 100 µM
92 | COc1ccc(C(=O)C(CO)Oc2ccccc2OC)cc1OC (stereo not drawn) | > 100 µM
93 | N#CC(/C(=N/NC(=O)C(=O)NN)C(=O)NC12CC3CC(CC(C3)C1)C2)c1ccccc1 (stereo not drawn) | > 100 µM
94 | CC(C)(C)C(=O)/C=C/c1ccc(Oc2ccccc2)cc1 | 36.1 µM
95 | CCOC(=O)CCc1c(C)c2c(OC(C)=O)cc(OC(C)=O)cc2oc1=O | > 100 µM
96 | O=C(CN1CCCCC1)N1CCc2c([nH]c3ccccc23)C1c1cccnc1 (stereo not drawn) | > 100 µM
97 | COC(=O)C12C3C4C5(C(=O)OC)C(C1C35C(=O)N(C(C)C)C(C)C)C42C(=O)N(C(C)C)C(C)C (stereo not drawn) | > 43.6 µM
98 | Cc1cc(C)n(CCNCCn2nc(C)cc2C)n1 | > 100 µM
99 | O=C1CSC(Cc2nc3ccccc3[nH]2)=N1 | > 100 µM
100 | O=C(/C=C/c1ccccc1)/C=C/c1ccccc1 | 40.8 µM
101 | N#C/C(=C\c1ccc(O)c(O)c1)C(N)=O | > 100 µM
102 | N#CC(C(=O)/C(=N/Nc1nc(=S)[nH]n1N)C(C#N)c1ccccc1)c1ccccc1 (stereo not drawn) | > 100 µM
103 | N#CC(C#N)=c1[nH]c2cccc3c2-c2c(cccc2c3=C(C#N)C#N)[nH]1 | > 100 µM

From PubChem BioAssay (NCI)
